# Measured values reported in ChEMBL document CHEMBL2202983, “Structure-anti-leukemic activity relationship study of ortho-dihydroxycoumarins in U-937 cells: key role of the δ-lactone ring in determining differentiation-inducing potency and selective pro-apoptotic action” (Bioorg Med Chem, 2012).
# Active and inactive are the calls of the source. The calls are words filed in the database; no cut-off is given here.
# Assays:
# [1] = test system: U-937; test: Cytotoxicity against human U937 cells after 48 hrs by trypan blue assay; type: functional; details: U-937, 48 h
# [2] = Pro-oxidant activity in 0.1 M potassium phosphate buffer at pH 7.4 assessed as increase of oxidation potential by cyclic voltammetry analysis; type: physicochemical
# [3] = test system: U-937; test: Induction of cell differentiation in human U937 cells assessed as increase of CD11b and CD14 expression at 500 uM after 72 hrs by FACS flow cytometer analysis; type: functional, cell-based
# [4] = test system: U-937; test: Antiproliferative activity against human U937 cells assessed as incorporation of [3H]-methyl-thymidine after 12 hrs by scintillation counting; type: functional, cell-based
# [5] = test system: U-937; test: Pro-oxidant activity in human U937 cells assessed as DCF-DA oxidation up to 6 hrs by fluorescence assay; type: functional, cell-based
# [6] = test system: Jurkat; test: Cytotoxicity against human Jurkat at 250 uM after 48 hrs by trypan blue assay; type: functional, cell-based
# [7] = test system: U-937; test: Cell cycle arrest in human U937 cells assessed as accumulation at sub-G0/G1 phase at 250 uM after 24 hrs using propidium iodide staining by FACS analysis; type: functional, cell-based
# [8] = test system: U-937; test: Induction of apoptosis in human U937 cells assessed as reduction of normal cells at 250 uM after 24 hrs by Annexin V-FITC double staining; type: functional, cell-based
# [9] = test system: U-937; test: Induction of DNA damage in human U937 cells; type: functional, cell-based
# [10] = test system: U-937; test: Induction of cell differentiation in human U937 cells assessed as increase of rhC5a-induced response at 50 uM after 72 hrs by FACS flow cytometer analysis; type: functional, cell-based
# [11] = test system: U-937; test: Induction of apoptosis in human U937 cells assessed as activation of caspase-3 at 250 uM after 24 hrs by colorimetric assay in presence of caspase-8 inhibitor Z-LETD-FMK; type: functional, cell-based
# [12] = test system: U-937; test: Inhibition of clonogenic activity in human U937 cells assessed as reduction of colony formation in soft agar at 100 to 250 uM after 24 hrs using crystal violet staining; type: functional, cell-based
# [13] = Induction of free radicals production in carbonate buffer at pH 9 by electron spin resonance analysis; type: physicochemical
# [14] = test system: U-937; test: Induction of apoptosis in human U937 cells assessed as activation of caspase-3 at 250 uM after 24 hrs by colorimetric assay in presence of caspase-9 inhibitor Z-LEHD-FMK; type: functional, cell-based
# [15] = test system: PBMC; test: Cytotoxicity against human PBMC at 250 uM after 48 hrs by trypan blue assay; type: cell-based
# [16] = test system: U-937; test: Induction of apoptosis in human U937 cells assessed as increase of caspase-9 cleavage at 250 uM after 12 hrs by Western blot analysis; type: functional, cell-based
# [17] = test system: U-937; test: Induction of cell differentiation in human U937 cells assessed as increase of CD88 expression at 50 uM after 72 hrs by FACS flow cytometer analysis; type: functional, cell-based
# [18] = test system: U-937; test: Induction of apoptosis in human U937 cells assessed as activation of caspase-3 at 250 uM after 24 hrs by colorimetric assay; type: functional, cell-based
# [19] = test system: Jurkat; test: Induction of apoptosis in human Jurkat cells assessed as activation of caspase-3-mediated PARP cleavage at 250 uM after 24 hrs by colorimetric assay; type: functional, cell-based
# [20] = test system: U-937; test: Induction of apoptosis in human U937 cells assessed as increase of caspase-9 cleavage at 250 uM by Western blot analysis; type: functional, cell-based; details: TDE = time-dependent effect
# [21] = Induction of free radicals production in RPMI 1640 medium at pH 7.4 by electron spin resonance analysis; type: physicochemical
# [22] = test system: U-937; test: Induction of apoptosis in human U937 cells assessed as PARP cleavage at 250 uM after 24 hrs by Western blot analysis; type: functional, cell-based
# [23] = test system: U-937; test: Induction of apoptosis in human U937 cells assessed as active 11 kDa fragment of caspase-3 at 250 uM after 24 hrs by Western blot analysis; type: functional, cell-based
# [24] = test system: U-937; test: Pro-oxidant activity in human U937 cells assessed as DCF-DA oxidation at 10 to 250 uM by fluorescence assay; type: functional, cell-based; details: TDE = time-dependent effect
# [25] = test system: U-937; test: Induction of apoptosis in human U937 cells assessed as phosphatidylserine expression in plasma membrane at 250 uM after 24 hrs by Annexin V-FITC double staining; type: functional, cell-based
# [26] = test system: U-937; test: Induction of cell differentiation in human U937 cells assessed as increase of CD11b and CD14 expression at 50 uM after 72 hrs by FACS flow cytometer analysis; type: functional, cell-based
# [27] = test system: U-937; test: Induction of apoptosis in human U937 cells assessed as increase of caspase-8 cleavage at 250 uM after 12 hrs by Western blot analysis; type: functional, cell-based
# [28] = test system: U-937; test: Induction of cell differentiation in human U937 cells assessed as increase of rhC5a-induced response at 500 uM after 72 hrs by FACS flow cytometer analysis; type: functional, cell-based
# [29] = test system: Jurkat; test: Induction of apoptosis in human Jurkat cells assessed as activation of caspase-3-mediated PARP cleavage at 500 uM after 24 hrs by colorimetric assay; type: functional, cell-based
# [30] = test system: U-937; test: Pro-oxidant activity in human U937 cells assessed as DCF-DA oxidation at 10 to 250 uM after 48 hrs by fluorescence assay; type: functional, cell-based
# [31] = test system: PBMC; test: Cytotoxicity against human PBMC at 500 uM after 48 hrs by trypan blue assay; type: cell-based
# [32] = test system: U-937; test: Induction of cell differentiation in human U937 cells assessed as increase of CD88 expression at 500 uM after 72 hrs by FACS flow cytometer analysis; type: functional, cell-based
# [33] = test system: U-937; test: Induction of apoptosis in human U937 cells assessed as phosphatidylserine expression in plasma membrane at 500 uM after 24 hrs by Annexin V-FITC double staining; type: functional, cell-based
# [34] = test system: U-937; test: Induction of apoptosis in human U937 cells assessed as activation of caspase-3 at 500 uM after 24 hrs by colorimetric assay; type: functional, cell-based
structure (smiles),measurement,setting,value
Cc1cc(O)cc(=O)o1,CC50,[1],> 2000 µM
same,Activity,[2],Not Active
same,Activity,[3],Active
same,IC50,[4],> 2000 µM
Cc1cc(=O)oc2c(O)c(O)ccc12 [4-METHYLDAPHNETIN],Activity,[5],Dose-dependent effect
same,Activity,[6],Active
same,Activity,[7],Active
same,Activity,[8],Active
same,Activity,[9],inactive
same,Activity,[10],Active
same,Activity,[11],Active
same,colony formation inhibition (active/not active),[12],Active
same,CC50,[1],120 µM
same,Activity,[13],Active
same,Activity,[14],inactive
same,Activity,[2],Active
same,Activity,[15],Toxic
same,Activity,[16],Active
same,Activity,[17],Active
same,Activity,[18],Active
same,Activity,[19],Active
same,IC50,[4],83.2 µM
same,Activity,[20],tde
same,Activity,[21],Active
same,Activity,[22],Active
same,Activity,[23],Active
same,Activity,[24],tde
same,Activity,[25],Active
same,Activity,[26],Active
same,Activity,[27],inactive
COc1ccc(/C=C/C(=O)O)cc1OC,CC50,[1],> 2000 µM
same,Activity,[2],Active
same,IC50,[4],> 2000 µM
Cc1cc(=O)oc2cc(O)c(O)cc12 [4-METHYLESCULETIN],Activity,[7],Active
same,Activity,[8],Active
same,colony formation inhibition (active/not active),[12],Active
same,CC50,[1],76 µM
same,Activity,[13],Active
same,Activity,[18],Active
same,IC50,[4],97.4 µM
same,Activity,[21],Active
same,Activity,[22],Active
same,Activity,[23],Active
COc1ccc(CCC(=O)O)cc1OC,CC50,[1],> 2000 µM
same,Activity,[2],Active
same,Activity,[28],inactive
same,Activity,[29],inactive
same,Activity,[3],inactive
same,IC50,[4],> 2000 µM
same,Activity,[30],inactive
same,Activity,[31],Non-toxic
same,Activity,[32],inactive
COc1cc(C)oc(=O)c1,CC50,[1],> 2000 µM
same,Activity,[2],Not Active
same,Activity,[3],Active
same,IC50,[4],> 2000 µM
COc1ccc2c(C)cc(=O)oc2c1OC,Activity,[33],Active
same,colony formation inhibition (active/not active),[12],inactive
same,CC50,[1],> 2000 µM
same,Activity,[2],Not Active
same,Activity,[28],inactive
same,Activity,[29],inactive
same,Activity,[3],inactive
same,IC50,[4],736 µM
same,Activity,[34],inactive
same,Activity,[30],inactive
same,Activity,[31],Non-toxic
same,Activity,[32],inactive
Cc1cc(=O)oc2cc(O)c(Cl)cc12,CC50,[1],734 µM
same,Activity,[3],inactive
same,IC50,[4],771 µM
same,Activity,[34],inactive
CC(=O)c1c(O)ccc2c(C)cc(=O)oc12,CC50,[1],> 1000 µM
same,Activity,[3],Active
same,IC50,[4],454 µM
same,Activity,[34],inactive
O=c1cccco1,CC50,[1],> 2000 µM
same,Activity,[2],Not Active
same,Activity,[3],Active
same,IC50,[4],> 2000 µM
Cc1cc(=O)oc2cc(O)ccc12 [HYMECROMONE],colony formation inhibition (active/not active),[12],inactive
same,CC50,[1],> 2000 µM
same,Activity,[3],Active
same,IC50,[4],711 µM
same,Activity,[34],inactive
same,Activity,[30],inactive
